The record followed here is US20230091225A1, “Bifunctional chimeric heterocyclic compounds for targeted degradation of androgen receptors and use thereof” (HINOVA PHARMACEUTICALS INC., priority 2019, published 2023).

One may read the DC50 as the midpoint of the concentration-degradation curve. By Dmax is commonly meant the largest share of the target that was removed.

The target of the assay is T1, androgen receptor (AR) (Homo sapiens, UniProt P10275).
T1 sequence (P10275 1-920): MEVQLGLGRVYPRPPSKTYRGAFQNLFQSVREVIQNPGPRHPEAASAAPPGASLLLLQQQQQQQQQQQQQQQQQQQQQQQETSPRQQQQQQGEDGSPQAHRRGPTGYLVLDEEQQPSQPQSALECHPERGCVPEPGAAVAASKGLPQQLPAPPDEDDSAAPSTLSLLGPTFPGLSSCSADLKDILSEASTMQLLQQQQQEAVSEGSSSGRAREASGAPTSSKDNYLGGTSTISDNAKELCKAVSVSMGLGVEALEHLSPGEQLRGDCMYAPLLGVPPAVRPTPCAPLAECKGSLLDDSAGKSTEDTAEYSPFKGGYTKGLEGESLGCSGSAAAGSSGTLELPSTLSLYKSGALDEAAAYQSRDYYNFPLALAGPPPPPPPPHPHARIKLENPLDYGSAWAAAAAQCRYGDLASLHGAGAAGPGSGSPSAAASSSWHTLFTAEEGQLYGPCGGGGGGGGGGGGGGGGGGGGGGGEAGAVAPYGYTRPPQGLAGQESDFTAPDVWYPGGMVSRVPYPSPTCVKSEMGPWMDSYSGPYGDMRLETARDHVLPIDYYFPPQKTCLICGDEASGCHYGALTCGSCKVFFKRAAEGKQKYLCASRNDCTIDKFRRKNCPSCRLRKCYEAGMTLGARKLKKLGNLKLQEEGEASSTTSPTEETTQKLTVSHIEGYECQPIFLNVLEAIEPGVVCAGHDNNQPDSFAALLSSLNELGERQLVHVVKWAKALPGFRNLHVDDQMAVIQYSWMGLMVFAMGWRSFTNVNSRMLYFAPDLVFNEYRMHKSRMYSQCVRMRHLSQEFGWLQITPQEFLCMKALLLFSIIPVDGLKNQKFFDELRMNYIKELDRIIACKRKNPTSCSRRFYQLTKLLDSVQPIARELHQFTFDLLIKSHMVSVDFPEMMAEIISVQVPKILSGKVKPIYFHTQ
As to the kind of experiment: Degradation of androgen receptor (AR) protein in VCaP cells by ELISA. The format is cell-based. Particulars: for Dmax: VCaP.

[1] abbreviates: AR degradation, VCaP cells, 16 h, ELISA, Table 3-2, read-out: DC50.
Setting [2] is: AR degradation, VCaP cells, 16 h, ELISA, Table 3-2, read-out: Dmax (%).
Where [3] appears, read: AR degradation, VCaP cells, 16 h, ELISA, Table 3-1, read-out: DC50.
The mark [4] stands for this setting: AR degradation, VCaP cells, 16 h, ELISA, Table 3-1, read-out: Dmax (%).

Like-named read-outs stand apart in the source and are kept apart here. A value given as a limit tells only on which side of the number the result lay.

With `N#Cc1ccc(O[C@H]2CC[C@H](NC(=O)c3cnc(N4CCC(CN5CCC6(CC5)CN(c5ccc7c(c5)C(=O)N(C5CCC(=O)NC5=O)C7=O)C6)CC4)nn3)CC2)cc1C(F)(F)F` (stereo partly drawn) [Compound 420, N-((1r,4r)-4-(4-cyano-3-trifluoromethyl-phenoxy)cyclohexyl)-3-(4-((2-(2-(2,6-dioxopiperidin-3-yl)-1,3-dioxoisoindolin-5-yl)-2,7-diazaspiro[3.5]nonane-7-yl)methyl)piperidin-1-yl)-1,2,4-triazine-6-formamide], the DC50 under setting [1] is < 10 nM. Further, the Dmax under setting [2] was > 80%.
As for `[2H]C([2H])([2H])Oc1cc(O[C@H]2C(C)(C)[C@H](N3Cc4nc(C#C[C@H]5CC[C@H](N6CCN(c7ccc8c(c7)C(=O)N(C7CCC(=O)NC7=O)C8=O)CC6)CC5)ccc4C3=O)C2(C)C)ccc1C#N` (stereo partly drawn) [Compound 429], the DC50 under setting [1] is < 10 nM. In addition, the Dmax under setting [2] is > 80%.
As for `N#Cc1ccc(O[C@H]2CC[C@H](NC(=O)c3ncnn3[C@H]3CC[C@H](CN4CCC5(CC4)CN(c4ccc6c(c4)C(=O)N(C4CCC(=O)NC4=O)C6=O)C5)CC3)CC2)cc1Cl` (stereo partly drawn) [Compound 86, N-((1r,4R)-4-(3-chloro-4-cyanophenoxy)cyclohexyl)-1-((1r,4R)-4-((2-(2-(2,6-dioxopiperidin-3-yl)-1,3-dioxoisoindolin-5-yl)-2,7-diazaspiro[3.5]nonan-7-yl)methyl)cyclohexyl)-1H-1,2,4-triazole-5-formamide], under setting [3], the DC50 is 100 to 300 nM. Moreover, the Dmax under setting [4] lay within 60 to 80%.
`N#Cc1ccc(O[C@H]2CC[C@H](NC(=O)c3ccc(N4CC5CC4CN5C[C@H]4[C@@H]5CN(c6cc7c(cc6F)C(=O)N(C6CCC(=O)NC6=O)C7=O)C[C@@H]54)nn3)CC2)cc1Cl` (stereo partly drawn) [Compound 237]: the DC50 under setting [3] lay within 100 to 300 nM. For the same molecule, the Dmax under setting [4] fell in the range of 40 to 60%.
Turning to `[2H]C([2H])([2H])Oc1cc(O[C@H]2CC[C@H](NC(=O)c3ccc(N4CCC(CN5CCC6(CC5)CN(c5ccc7c(c5)C(=O)N(C5CCC(=O)NC5=O)C7=O)C6)CC4)nn3)CC2)ccc1C#N` (stereo partly drawn) [Compound 153], the DC50 was < 10 nM and the Dmax is > 80%.
Take `N#Cc1ccc(O[C@H]2CC[C@H](NC(=O)c3cnc(N4CC5(CCN(C6CCN(c7cc8c(cc7F)C(=O)N(C7CCC(=O)NC7=O)C8=O)CC6)C5)C4)cn3)CC2)cc1Cl` (stereo partly drawn) [Compound 82, N-((1r,4r)-4-(3-chloro-4-cyanophenoxy)cyclohexyl)-5-(6-(1-(2-(2,6-dioxopiperidin-3-yl)-6-fluoro-1,3-dioxoisoindolin-5-yl)piperidine-4-yl)-2,6-diazaspiro [3.4]octane-2-yl)pyrazine-2-carboxamide]: the Dmax is > 80%. Further, the DC50 under setting [3] is < 10 nM.
As for `N#Cc1ccc(O[C@H]2CC[C@H](NC(=O)c3ncc(N4CCC(CN5CCC6(CC5)CN(c5ccc7c(c5)C(=O)N(C5CCC(=O)NC5=O)C7=O)C6)CC4)cn3)CC2)cc1Cl` (stereo partly drawn) [Compound 135], under setting [3], the DC50 is > 300 nM. In addition, under setting [4], the Dmax is < 40%.
In the case of `N#Cc1ccc(O[C@H]2CC[C@H](NC(=O)c3cnc(N4CCC(CN5CCC6(CC5)CN(c5cc7c(cc5F)C(=O)N(C5CCC(=O)NC5=O)C7)C6)CC4)nn3)CC2)cc1Cl` (stereo partly drawn) [Compound 417], the DC50 under setting [1] is < 10 nM. For the same molecule, the Dmax under setting [2] was > 80%.
In the case of `CC1(C)[C@H](Oc2ccc(C#N)c(Cl)c2)C(C)(C)[C@H]1N1Cc2nc(C#CC3CCC(N4CC5(CN(c6ccc7c(c6)C(=O)N([C@@H]6CCC(=O)NC6=O)C7=O)C5)C4)CC3)ccc2C1=O` (stereo partly drawn) [Compound 350, 2-Chloro-4-((1r,3r)-3-(2-((4-(6-(2-(2,6-dioxopiperidin-3-yl)-1,3-dioxoisoindolin-5-yl)-2,6-diazaspiro[3.3]heptane-2-yl)cyclohexyl)ethynyl)-5-oxo-5,7-dihydro-6H-pyrrolo[3,4-b]pyridin-6-yl)-2,2,4,4-tetramethylcyclobutoxy) benzonitrile], the “Dmax (%)” value is given as “++ (key: ++++: >80%; +++: 80%-60%; ++: 60%-40%; +: <40%)”. Besides, under “read-out: DC50”, the DC50 fell in the range of 100 to 300 nM.
On to `Cc1cc(O[C@H]2CC[C@H](NC(=O)c3ccc(N4CCC(CN5CCC6(CC5)CN(c5ccc7c(c5)C(=O)N(C5CCC(=O)NC5=O)C7=O)C6)CC4)nn3)CC2)ccc1C#N` (stereo partly drawn) [Compound 275], for which the DC50 is < 10 nM and the Dmax was > 80%.
With `CC1(C)[C@H](Oc2ccc(C#N)c(Cl)c2)C(C)(C)[C@H]1N1Cc2nc(C#CC3CCC(N4CC5CC4CN5c4ccc5c(c4)C(=O)N(C4CCC(=O)NC4=O)C5=O)CC3)ccc2C1=O` (single isomer, unassigned) [Compound 352, 2-Chloro-4-((1r,3r)-3-(2-((4-(5-(2-(2,6-dioxopiperidin-3-yl)-1,3-dioxoisoindolin-5-yl)-2,5-diazabicyclo[2.2.1]heptan-2-yl)cyclohexyl)ethynyl)-5-oxo-5,7-dihydro-6H-pyrrolo[3,4-b]pyridin-6-yl)-2,2,4,4-tetramethylcyclobutoxy) benzonitrile], the DC50 under setting [3] was > 300 nM. In addition, the Dmax under setting [4] was in the range of 40 to 60%.
As to `N#Cc1ccc(O[C@H]2CC[C@H](NC(=O)c3ccc(N4CCC(N5CC6(CCN(c7ccc8c(c7)C(=O)N(C7CCC(=O)NC7=O)C8=O)CC6)C5)CC4)nn3)CC2)cc1Cl` (stereo partly drawn) [Compound 78], the DC50 under setting [3] was < 10 nM. The Dmax under setting [4] is > 80%.
The matching figures for `N#Cc1ccc(O[C@H]2CC[C@H](NC(=O)c3cnc(N4CC5CN(CC6CCN(c7cc8c(cc7F)C(=O)N(C7CCC(=O)NC7=O)C8=O)CC6)CC5C4)nc3)CC2)cc1Cl` (stereo partly drawn) [Compound 272]: < 10 nM and > 80%.
`N#Cc1ccc(OC2CCC(NC(=O)c3cnc(N4C[C@H]5CC[C@@H](C4)N5C[C@H]4[C@@H]5CN(c6cc7c(cc6F)C(=O)N(C6CCC(=O)NC6=O)C7=O)C[C@@H]54)cn3)CC2)cc1Cl` (stereo partly drawn) [Compound 240]: the DC50 fell in the range of 10 to 100 nM and the Dmax lay in the range of 60 to 80%.
`CC1(C)[C@H](Oc2ccc(C#N)c(Cl)c2)C(C)(C)[C@H]1N1Cc2nc(C#CC3CCC(N4CCC5(CCN(c6ccc7c(c6)C(=O)N(C6CCC(=O)NC6=O)C7=O)C5)C4)CC3)ccc2C1=O` (stereo partly drawn) [Compound 365, 2-Chloro-4-((1r,3r)-3-(2-((4-(7-(2-(2,6-dioxopiperidin-3-yl)-1,3-dioxoisoindolin-5-yl)-2,7-Diazaspiro[4.4]nonan-2-yl)cyclohexyl)ethynyl)-5-oxo-5,7-dihydro-6H-pyrrolo[3,4-b]pyridin-6-yl)-2,2,4,4-tetramethylcyclobutoxy) benzonitrile]: under “AR degradation, VCaP cells, 16 h, ELISA, Table 3-1”, the “Dmax (%)” value was “++++ (>80%)”. The DC50 under setting [3] was 10 to 100 nM.
As to `[2H]C([2H])([2H])N(C(=O)c1ccc(N2CCC(CN3CCN(c4cc5c(cc4F)C(=O)N(C4CCC(=O)NC4=O)C5=O)CC3)CC2)nn1)[C@H]1CC[C@H](Oc2ccc(C#N)c(Cl)c2)CC1` (stereo partly drawn) [Compound 133, N-((1r,4r)-4-(3-chloro-4-cyanophenoxy)cyclohexyl)-6-(4-((4-(2-(2,6-dioxopiperidin-3-yl)-6-fluoro-1,3-dioxoisoindolin-5-yl)piperazin-1-yl)methyl)piperidin-1-yl)-N-deuteromethyl-pyridazine-3-amide], the DC50 is > 300 nM and the Dmax was < 40%.
As to `CC1(C)[C@H](Oc2ccc(C#N)c(Cl)c2)C(C)(C)[C@H]1N1Cc2nc(C#CC3CC(N4CC5CN(c6cc7c(cc6F)C(=O)N(C6CCC(=O)NC6=O)C7=O)CC5C4)C3)ccc2C1=O` (stereo partly drawn) [Compound 360], the DC50 under setting [3] was in the range of 10 to 100 nM. For the same molecule, the Dmax under setting [4] fell in the range of 60 to 80%.
For the molecule `N#Cc1ccc(O[C@H]2CC[C@H](NC(=O)c3ccc(N4CCC(N5CC6(CCN(c7cc8c(cc7F)C(=O)N(C7CCC(=O)NC7=O)C8=O)CC6)C5)CC4)nc3)CC2)cc1Cl` (stereo partly drawn) [Compound 77, N-((1r,4r)-4-(3-chloro-4-cyanophenoxy)cyclohexyl)-6-(4-(7-(2-(2,6-dioxopiperidin-3-yl)-6-fluoro-1,3-dioxoisoindolin-5-yl)-2,7-diazaspiro[3.5]nonan-2-yl)piperidin-1-yl)nicotinamide], under setting [3], the DC50 was < 10 nM. Also, the Dmax under setting [4] was > 80%.
As for `CC1(C)[C@H](Oc2ccc(C#N)c(Cl)c2)C(C)(C)[C@H]1N1Cc2nc(C#C[C@H]3C[C@H](N4CCN(c5cnn(C6CCC(=O)NC6=O)c(=O)c5)CC4)C3)ccc2C1=O` (stereo partly drawn) [Compound 394], the DC50 under setting [1] was 10 to 100 nM. Besides, the Dmax under setting [2] lay in the range of 60 to 80%.
Consider `CCOc1cc(O[C@H]2C(C)(C)[C@H](N3Cc4nc(C#C[C@H]5CC[C@H](N6CCN(c7ccc8c(c7)C(=O)N(C7CCC(=O)NC7=O)C8=O)CC6)CC5)ccc4C3=O)C2(C)C)ccc1C#N` (stereo partly drawn) [Compound 430], for which the DC50 under setting [1] is 100 to 300 nM. The Dmax under setting [2] lay in the range of 60 to 80%.
`N#Cc1ccc(O[C@H]2CC[C@H](NC(=O)c3cnn([C@H]4CC[C@H](CN5CCC6(CC5)CN(c5cc7c(cc5F)C(=O)N(C5CCC(=O)NC5=O)C7=O)C6)CC4)c3)CC2)cc1Cl` (stereo partly drawn) [Compound 246] showed a Dmax of 60 to 80%. Moreover, the DC50 under setting [3] was in the range of 10 to 100 nM.
